Measured values taken from patent publication US12673028B2, “Therapeutic potential of cellulose-cyclodextrin-curcumin nanocrystals in the treatment of peripheral neuropathies” (UNIVERSITÉ DE LIMOGES, priority 2019, dated 2026).

Assays:
[1] = Bioavailability of curcumin in plasma; format: in vivo; details: rat, 50 mg/kg
[2] = rats; cited from earlier work
wild type Schwann cells = assay: In vitro H2O2-induced oxidative stress in Schwann cells; format: cell-based, rat; details: H2O2 0.1 mM
Procedure: Schwann cells (SCs) were isolated from sciatic nerves of wild type (WT) male rats as well as 8-week-old CMT1A rats. SCs were cultured in SC culture medium (described in Caillaud et al., 2018): DMEM D-valine+2 mM glutamine (Gibco)+10% fetal calf serum (Gibco)+1% N2 supplement (Gibco)+20 μg/mL bovine pituitary extract+5 μM forskolin (Gibco)+100 U/mL penicillin/streptomycin (Gibco)+250 μg/mL fungizone (Gibco). SCs were identified using immunofluorescent labeling for S-100 protein.
To induce oxidative stress, SCs were subjected to H2O2 (0.1 mM) treatment for 8 hours. Total ROS and mitochondrial superoxide ions were assessed using the CellROX-Green reagent (Life Technologies GmbH) and the mitochondrial superoxide indicator MitoSOX Red (Life Technologies GmbH), respectively, according to the manufacturer's recommendations.

concentration at 0 h [1]: 0 ng/mL
concentration at 1 h [1]: 24.9 ng/mL
concentration at 2 h [1]: 4.3 ng/mL
concentration at 8 h [1]: 0 ng/mL
concentration at 12 h [1]: 0 ng/mL
SMILES: COc1cc(/C=C/C(=O)CC(=O)/C=C/c2ccc(O)c(OC)c2)ccc1O [Curcumin, curcumin]
Oral bioavailability [2]: approximately 1%
Mitochondrial membrane potential Δψm (Rho123) (wild type Schwann cells; 0.001 μM and 0.01 μM): did not reduce the H2O2-induced decrease in Δψm
H2O2-induced mitochondrial ROS (MitoSOX) (wild type Schwann cells; 1 μM, 8 h pretreatment): restored values close to those of the control group
H2O2-induced total ROS (CellROX) (wild type Schwann cells; 1 μM, 8 h pretreatment): reduced H2O2-induced total ROS
H2O2-induced total ROS (CellROX) (wild type Schwann cells; 0.001, 0.01 and 10 μM, 8 h pretreatment): had no antioxidant effect
